Seven compounds from ChEMBL document CHEMBL3797153, “Discovery of acyl guanidine tryptophan hydroxylase-1 inhibitors” (Bioorg Med Chem Lett, 2016) can be followed below.

Data set [1] in a line: Kinetic aqueous solubility in pH 7.4 50 mM phosphate buffer. Type of data set: physicochemical. As to conditions: read-out: Kinetic_solubility.
A short description of data set [2]: Protein binding in rat plasma by equilibrium dialysis. Format: ADME, cell-free. The note with it: read-out: PPB (converted). On the technique in general: In equilibrium dialysis free small molecules cross a membrane that holds back macromolecules.
Data set [3] concerns Mus musculus. Briefly: In-vivo inhibition of TPH1 in mouse assessed as 5-HT level in intestinal mucosa at 150 mg/kg, po administered as single dose relative to control. Type of data set: functional. Further details: scale not given: the % may be the effect or the level left.

In brackets after ≈: the same amount, converted by molar mass.

Take `COc1cccc(Oc2cccc(N3CCCCC3)c2CN/C(N)=N/C(=O)c2ccc(C[C@H](N)C(=O)O)cc2)c1`: in data set [1], the solubility kinetic is > 40 µM. For the same compound, in data set [2], the fraction unbound is 0.12.
Regarding `CCOC(=O)[C@@H](N)Cc1ccc(C(=O)/N=C(\N)NCc2c(Oc3ccccc3)cccc2N2CCCCC2)cc1`, in data set [3], the Activity was 62%.
Turning to `N/C(=N\C(=O)c1ccc(C[C@H](N)C(=O)O)cc1)NCc1cc(-c2ccccc2)ccc1N1CCCCC1`, the solubility kinetic in data set [1] amounted to 16 µM (≈ 7.99 µg/mL).
On to `Cc1cccc(N2CCCCCC2)c1CN/C(N)=N/C(=O)c1ccc(C[C@H](N)C(=O)O)cc1`, for which the solubility kinetic in data set [1] was determined as 40 µM (≈ 18.1 µg/mL). Besides, the Activity in data set [3] worked out at 72%.
For the compound `N/C(=N\C(=O)c1ccc(C[C@H](N)C(=O)O)cc1)NCc1c(Oc2ccccc2)cccc1N1CCCCC1`, the Activity in data set [3] was 80%.
Regarding `CCOC(=O)[C@@H](N)Cc1ccc(C(=O)/N=C(\N)NCc2c(C)cccc2N2CCCCCC2)cc1`, the Activity in data set [3] amounted to 62%.
As for `Nc1nc(OC(c2ccc(-c3cccc(F)c3)cc2)C(F)(F)F)cc(-c2ccc(C[C@H](N)C(=O)O)cc2)n1` (stereo not given in full), the solubility kinetic in data set [1] was found to be 2.1 µM (≈ 1.11 µg/mL). In data set [2], the fraction unbound is < 0.001.
